Data from patent publication EP1289507B1, “USE OF AN ALDOSTERONE ANTAGONIST FOR THE TREATMENT OR PROPHYLAXIS OF ALDOSTERONE-MEDIATED PATHOGENIC EFFECTS” (priority 2000, dated 2001).
Like-named read-outs stand apart in the source and are kept apart here.

Tests used:
[1] = system: L-NAME/Angiotensin II/NaCl-treated rats; assay: L-NAME/Angiotensin II/NaCl model of cardiac and renal injury (14 days); assay type: in vivo, Male Wistar rats
Method: Animals. Male Wistar rats (n=44), weighing 200 to 225 grams, and obtained from Charles River Laboratories (Wilmington, MA) were used in the study. All animals were housed in a room lighted 12 hours per day at an ambient temperature of 22±1°C. Animals were allowed one week to recover after arrival and had free access to Purina Lab Chow 5001 (Ralston Purina Inc, St. Louis, MO) and tap water until the initiation of the experiment. After initiation of the protocols, animals in all groups were placed in individual metabolic cages, handled and weighed daily. Twenty-four hour fluid intake, food intake and urine output were measured daily. […] On day 14 of L-NAME treatment, animals were decapitated, trunk blood was collected into chilled tubes containing ethylene diamine tetraacetic acid and the heart and kidneys were removed, blotted dry and immediately weighed. […] Drugs. Eplerenone was supplied by G.D. Searle Pharmaceuticals (St. […] Dexamethasone was dissolved in sesame oil and administered as a single subcutaneous dose (12 μg/kg/day) every day. This dose of dexamethasone has been reported to maintain normal weight gain, glomerular filtration rate, and fasting plasma glucose and insulin levels in adrenalectomized rats. Stanton, B., Giebisch G et al. J. Clin. Invest 1985 75:1317-1326. The experiment was concluded on day 14 of L-NAME treatment. […] (Hou J et al. J. Clin. Invest. 1995 96:2469-2477. […] This lower dose induced lesions in stroke-prone spontaneously hypertensive rats. (Rocha R et al. […] Dexamethasone, aldosterone and L-NAME were purchased from Sigma Chemical Co. (St. Louis, MO). […] Surgical Procedure. […] Bilateral adrenalectomy was performed using a dorsolumbar approach, making separate incisions on each side. […] No post operative deaths occurred. Assays and Analyses. Systolic blood pressure was measured in awake animals by tail-cuff plethysmography using a Natsume KN-210 manometer and tachometer (Peninsula Laboratories Inc, Belmont, CA). Rats were warmed at 37°C for 10 minutes and allowed to rest quietly in a Lucite chamber before measurement of blood pressure. Urinary protein concentration was determined in urine collected on the last day of the experiment using the sulfosalicylic acid turbidity method. […] Plasma aldosterone concentration was determined using a standard radioimmunoassay-kit from Diagnostic Products Co. (Los Angeles, CA). Plasma renin activity ("PRA") was determined by radioimmunoassay detection of generated angiotensin I (DiaSorin Inc., Stillwater, MN). Histology. Hearts were stained with collagen specific dye Sirius red for determination of fibrosis as reported elsewhere. (Young M et al. Am. J. Physiol 1995 269:[…]-[…]). Interstitial collagen was determined using an automated image analyzer. The hearts were also stained with hematoxylin and eosin for light microscopic analysis. Two or three slices of different sections of the heart containing both right and left ventricle were analyzed from each animal. […] Glomerular damage, when present, was characterized as the presence of either segmental or global sclerosis with ischemic or thrombotic changes. Renal arterial and arteriolar damage was categorized as the presence of fibrinoid necrosis of the vascular wall. The renal arterial and arteriolar profiles presenting damage were counted and the number of injured vessels per section was divided by the number of glomeruli in the same section in order to normalize for the amount of tissue examined. […] Statistical analysis. Data were tested for normality using the Kolmogorov-Smimov test. Systolic blood pressure was analyzed using repeated measures-analysis of variance for time and treatment group. One-way analysis of variance was used for normally distributed data with one grouping variable. Post-hoc analysis was performed using Newman Keuls multiple-comparison test. Data that were not normally distributed were analyzed with the Kruskal-Wallis test. Subsequently, selected pairwise comparisons were made using the exact Wilcoxon test. […]

[2] = Pharmacokinetics and absorption after IV and oral [14C]eplerenone in the rat; assay type: in vivo; conditions: for half-life / clearance: iv, IV 15 mg/kg; for half-life / clearance / Cmax / bioavailability: 15 mg/kg; for Cmax / bioavailability: po; for Cmax: Cmax of total eplerenone
Method: Plasma, urine and fecal samples were analyzed for total radioactivity.

[3] = Single dose tolerability and pharmacokinetic trials, Japan and Ex-Japan; assay type: in vivo, Japanese (Japan) and European (Ex-Japan) subjects; conditions: for CL/F: single dose, least squares mean
Method: A total of 76 European subjects and 38 Japanese subjects participated in the single and multiple dose tolerability and food effect trials. Three of the studies were Ex-Japan studies and included doses ranging from 10 mg to 1000 mg. The other two studies were conducted in Japan and included doses ranging from 50 mg to 600 mg.
The Ex-Japan trials included (i) a single dose tolerability trial, and (ii) a multiple dose tolerability trial, and (iii) a food effect study.
Both single dose and multiple dose tolerability trials were conducted in Japan utilizing healthy male Japanese subjects. […] Six subjects who received the 100 mg dose also participated in the food effect treatment arm of the single dose tolerability trial.
Combining single dose fasting pharmacokinetic data from all five studies, an analysis of variance with factors for country (Japan, Ex-Japan), study nested within country, and dose were performed on the dose-normalized Cmax and AUC values to assess the effect of country (population). Dose normalization was done to the lowest dose (10 mg for single dose, 100 mg for multiple dose). In the absence of intravenous data, the distribution volume (V/F) and clearance (CL/F) parameters are represented as the apparent values and are normalized to 70 kg of body weight. There were no statistically significant differences between the Japan and Ex-Japan trials in any of the pharmacokinetic parameters analyzed.
No statistically significant differences were noted between the Japan and ex-Japan population for any of the derived parameters evaluated.
Each panel consisted of six subjects who were given eplerenone and two subjects who were given placebo.

[4] = 96 hours postdose; other tissues below the limit of detection; 20 mg/kg
[5] = system: stroke-prone spontaneously hypertensive rats; conditions: cited from earlier work
[6] = end of experiment, Epl 100 mg/kg/day p.o., ALDO 40 µg/kg/day in adrenalectomized rats

SMILES: COC(=O)[C@@H]1CC2=CC(=O)CC[C@]2(C)[C@@]23O[C@@H]2C[C@@]2(C)[C@@H](CC[C@@]24CCC(=O)O4)[C@H]13 [Eplerenone, Pregn-4-ene-7,21-dicarboxylic acid, 9,11-epoxy-17-hydroxy-3-oxo-, γ-lactone, methyl ester, (7α, 11α, 17β)-]
- cardiac injury (myocardial necrosis), histology ([1]; Figures A-3B, A-4): markedly reduced
- HW/BW ([1]; cardiac hypertrophy index, Epl 100 mg/kg/day p.o., ALDO 40 µg/kg/day in adrenalectomized rats): 3.46 ± .05 mg/g
- cardiac hypertrophy ([1]; compared to L-NAME/Angiotensin II/NaCl-treated rats): significantly reduced cardiac hypertrophy
- HW [1, 6]: 1144 ± 4 mg
- SBP [1, 6]: 177 ± 8 mmHg
- urinary protein excretion (24 hour), proteinuria ([1]; end of two-week treatment, Figure A-5): prevented the development of proteinuria
- extent of hypertension observed at the end of the experiment ([1]; eplerenone 100 mg/kg/day p.o., Figure A-1): not appreciably influenced
- reduction in renal arteriopathy damage compared to L-NAME/AngII/NaCl treated rats ([1]; histopathologic scores, P=0.1 (not significant)): 60%
- systemic availability of total radioactivity ([2]; oral 15 mg/kg, female rat): 66.4%
- mean Cmax of total radioactivity ([2]; oral 15 mg/kg, female rats): 7.67 µg equivalents/mL
- systemic availability of total radioactivity ([2]; oral 15 mg/kg, male rat): 59.6%
- mean Cmax of total radioactivity ([2]; oral 15 mg/kg, male rats): 7.64 µg equivalents/mL
- half-life ([2]; rat, plasma, elimination half-life of eplerenone, female rat): 1.14 h
- half-life ([2]; rat, plasma, elimination half-life of total eplerenone, female rat, closed plus open form): 1.14 h
- half-life ([2]; rat, plasma, elimination half-life of total eplerenone, male rat, lactone ring closed form plus open form): 1.01 h
- clearance ([2]; rat, plasma, plasma clearance (CL) of eplerenone, female rat): 20 mL/min/kg
- clearance ([2]; rat, plasma, plasma clearance (CL) of total eplerenone, female rat): 11.6 mL/min/kg
- clearance ([2]; rat, plasma, plasma clearance (CL) of total eplerenone, male rat): 16.4 mL/min/kg
- Cmax ([2]; rat, plasma, oral 15 mg/kg, female rat): 6350 ng/mL
- Cmax ([2]; rat, plasma, oral 15 mg/kg, male rat): 3200 ng/mL
- bioavailability ([2]; rat, plasma, systemic availability of eplerenone, oral 15 mg/kg, female rat): 66.1%
- bioavailability ([2]; rat, plasma, systemic availability of eplerenone, oral 15 mg/kg, male rat): 25.6%
- bioavailability ([2]; rat, plasma, systemic availability of total eplerenone, oral 15 mg/kg, female rat): 74.2%
- bioavailability ([2]; rat, plasma, systemic availability of total eplerenone, oral 15 mg/kg, male rat): 29.4%
- Tmax ([2]; rat, plasma, oral 15 mg/kg, male rats): 0.5 h
- adverse events ([3]; healthy Japanese male subjects, single doses 50-600 mg): no adverse events were reported
- CL/F ([3]; human, blood, po, Ex-Japan, read-out: CL/F (converted)): 228 mL/min
- CL/F ([3]; human, blood, po, Japan, read-out: CL/F (converted)): 230 mL/min
- CL/F ([3]; Ex-Japan): 14.44 L/hr/70 kg
- CL/F ([3]; Japan): 13.52 L/hr/70 kg
- concentrations of radioactivity in cecum, kidneys, large intestine and liver [4]: less than 0.024 µg equivalents/g
- proteinuria, renal lesions and hypertension [5]: prevented proteinuria and renal lesions but not severe hypertension
